Test results reported in ChEMBL document CHEMBL4138122, “Azaphenothiazines - promising phenothiazine derivatives. An insight into nomenclature, synthesis, structure elucidation and biological properties” (Eur J Med Chem, 2017).
Values after ≈ are worked out from the molar mass of the structure shown.

Assays:
SNB-19 [1] = assay: Cytotoxicity against human SNB19 cells assessed as cell growth inhibition after 48 hrs by SRB assay; type: functional, cell-based; conditions: SNB-19, 48 h
OVCAR-8 = assay: Cytotoxicity against human OVCAR8 cells assessed as cell growth inhibition after 48 hrs by SRB assay; type: functional, cell-based; conditions: OVCAR-8, 48 h
HL-60 = assay: Cytotoxicity against human HL60 cells assessed as cell growth inhibition after 48 hrs by SRB assay; type: functional, cell-based; conditions: HL-60, 48 h
M14 = assay: Cytotoxicity against human M14 cells assessed as cell growth inhibition after 48 hrs by SRB assay; type: functional, cell-based; conditions: M14, 48 h
HOP-62 = assay: Cytotoxicity against human HOP62 cells assessed as cell growth inhibition after 48 hrs by SRB assay; type: functional, cell-based; conditions: HOP-62, 48 h
Hs-578T = assay: Cytotoxicity against human Hs578T cells assessed as cell growth inhibition after 48 hrs by SRB assay; type: functional, cell-based
COLO 205 = assay: Cytotoxicity against human COLO205 cells assessed as cell growth inhibition after 48 hrs by SRB assay; type: functional, cell-based; conditions: COLO 205, 48 h
HOP-92 = assay: Cytotoxicity against human HOP92 cells assessed as cell growth inhibition after 48 hrs by SRB assay; type: functional, cell-based; conditions: HOP-92, 48 h
PBMC = assay: Inhibition of anti-CD3 induced human PBMC proliferation at 1 ug/ml; type: functional
786-0 = assay: Cytotoxicity against human 786-O cells assessed as cell growth inhibition after 48 hrs by SRB assay; type: functional, cell-based; conditions: 786-0, 48 h
HCT-116 = assay: Cytotoxicity against human HCT116 cells assessed as cell growth inhibition after 48 hrs by SRB assay; type: functional, cell-based; conditions: HCT-116, 48 h
ACHN = assay: Cytotoxicity against human ACHN cells assessed as cell growth inhibition after 48 hrs by SRB assay; type: functional, cell-based
SF-539 = assay: Cytotoxicity against human SF539 cells assessed as cell growth inhibition after 48 hrs by SRB assay; type: functional, cell-based; conditions: SF-539, 48 h
PC-3 = assay: Cytotoxicity against human PC3 cells assessed as cell growth inhibition after 48 hrs by SRB assay; type: functional, cell-based; conditions: PC-3, 48 h
Liver = assay: Antioxidant activity in rat liver microsomal membranes assessed as inhibition of Fe(2+)/ascorbate-induced lipid peroxidation; type: functional, microsomes, microsome
RXF 393 = assay: Cytotoxicity against human RXF393 cells assessed as cell growth inhibition after 48 hrs by SRB assay; type: functional, cell-based; conditions: RXF 393, 48 h
Rattus norvegicus [2] = assay: Anti-asthmatic activity in rat assessed as inhibition of egg albumin-induced duration of symptoms of dyspnoea at 3 mg/kg, po administered 90 mins prior to dyspnoea induction; type: functional
Ancylostoma caninum = assay: Anthelmintic activity against dog hookworm larvae infected in mouse assessed as protection against infection rate at 0.06%; type: functional
Rattus norvegicus [3] = assay: Antiinflammatory activity in rat assessed as inhibition of yeast-induced foot edema at 60 mg/kg; type: functional
[4] = Inhibition of lipoxygenase in rat peritoneal cavity resident cells
[5] = Toxicity in rat assessed as survival rate at 50 mg/kg; type: organism-based; conditions: in vivo
[6] = tested on: Mycobacterium tuberculosis; assay: Antitubercular activity against Mycobacterium tuberculosis H37Rv; type: functional
[7] = tested on: Mycobacterium tuberculosis; assay: Antitubercular activity against Mycobacterium tuberculosis H37Rv assessed as inhibition of bacterial growth at 6.25 ug/ml; type: functional; conditions: read-out: GI
Lipoxygenase = Lipoxygenase (Glycine max, UniProt Q39829); assay: Inhibition of soybean lipoxygenase
Mus musculus [8] = species: Mus musculus; assay: Antioxidant activity in Swiss albino mouse assessed as LPO level per mg tissue; type: functional
[9] = Antioxidant activity assessed as DPPH radical scavenging activity; type: functional; conditions: dose or concentration not given here
Mus musculus [10] = species: Mus musculus; assay: Antioxidant activity in Swiss albino mouse assessed as GSH level per mg tissue; type: functional
Aspergillus terreus = assay: Antimicrobial activity against Aspergillus terreus assessed as reduction in microbial growth at 1 to 10 ppm relative to control; type: functional
Bacillus subtilis = assay: Antimicrobial activity against Bacillus subtilis assessed as reduction in microbial growth at 1 to 10 ppm relative to control; type: functional
Staphylococcus aureus = assay: Antimicrobial activity against Staphylococcus aureus assessed as reduction in bacterial growth at 500 to 1000 ppm relative to control; type: functional
Candida albicans [11] = assay: Antimicrobial activity against Candida albicans assessed as reduction in […] growth at 500 to 1000 ppm relative to control; type: functional
[12] = tested on: Trichophyton mentagrophytes; assay: Antimicrobial activity against Trichophyton mentagrophytes assessed as reduction in microbial growth at 1 to 10 ppm relative to control; type: functional
[13] = tested on: Human immunodeficiency virus; assay: Antiviral activity against HIV infected in human MT4 cells; type: functional, organism-based; conditions: Human immunodeficiency virus 1, MT4
C32 = assay: Cytotoxicity against human C32 cells incubated for 72 hrs by WST1 dye based assay; type: functional, cell-based; conditions: C32, 72 h
MCF7 = assay: Cytotoxicity against human MCF7 cells incubated for 72 hrs by WST1 dye based assay; type: functional, cell-based; conditions: MCF7, 72 h
HFF-1 = assay: Cytotoxicity against human HFF1 cells incubated for 72 hrs by WST1 dye based assay; type: cell-based; conditions: HFF-1, 72 h
HUVEC [14] = assay: Anti-inflammatory activity in human HUVEC cells assessed as reduction in TNFalpha-induced VCAM expression after 4 hrs by ELISA; type: functional, cell-based
[15] = target: Intercellular adhesion molecule 1 (Homo sapiens, UniProt P05362); assay: Inhibition of ICAM1 (unknown origin)
[16] = target: Vascular cell adhesion protein 1 (Homo sapiens, UniProt P19320); assay: Inhibition of VCAM1 (unknown origin)
Mus musculus [17] = assay: Anti-inflammatory activity in IL1-induced paw inflammation Balb/c mouse model assessed as inhibition of neutrophil migration at 10 mg/kg, po, pretreated for 30 mins followed by IL1 challenge measured after 2 hrs by spectrophotometric method; type: functional
HUVEC [18] = assay: Anti-inflammatory activity in human HUVEC cells assessed as reduction in TNFalpha-induced E-selectin expression after 4 hrs by ELISA; type: functional, cell-based
Aspergillus niger [19] = assay: Antifungal activity against Aspergillus niger by CLSI protocol based method; type: functional
Aspergillus niger [20] = assay: Antifungal activity against Aspergillus niger; type: functional
Candida albicans [21] = assay: microbe, parasite or virus in culture
UO-31 [22] = assay: Cytotoxicity against human UO31 cells assessed as cell growth inhibition at 3.2 ug/ml after 48 hrs by SRB assay; type: functional; conditions: UO-31, 48 h, read-out: GI
EKVX = assay: Cytotoxicity against human EKVX cells assessed as cell growth inhibition at 2.1 ug/ml after 48 hrs by SRB assay; type: functional, cell-based; conditions: read-out: GI
UO-31 [23] = assay: Cytotoxicity against human UO31 cells assessed as cell growth inhibition at 2.1 ug/ml after 48 hrs by SRB assay; type: functional; conditions: UO-31, 48 h, read-out: GI
Escherichia coli = assay: Antibacterial activity against Escherichia coli; type: functional; conditions: Escherichia coli
Bacillus cereus = assay: Antibacterial activity against Bacillus cereus; type: functional, organism-based
Rattus norvegicus [24] = species: Rattus norvegicus; assay: Antioxidant activity in albino rat assessed as inhibition of catalase induced H2O2 production; type: functional
SNB-19 [25] = assay: Cytotoxicity against human SNB19 cells incubated for 72 hrs by WST1 dye based assay; type: functional, cell-based; conditions: SNB-19, 72 h
[26] = Inhibition of LTB4 formation in rat polymorphonuclear leukocytes preincubated for 2 mins followed by A-23187 addition after 4 mins; type: functional, cell-based
Trachea = assay: Inhibition of egg albumin antigen challenge-induced contraction response in methacholine-primed guinea pig trachea at 3 ug/ml; type: functional; conditions: Cavia porcellus

Chain of Intercellular adhesion molecule 1 (P05362 whole entry): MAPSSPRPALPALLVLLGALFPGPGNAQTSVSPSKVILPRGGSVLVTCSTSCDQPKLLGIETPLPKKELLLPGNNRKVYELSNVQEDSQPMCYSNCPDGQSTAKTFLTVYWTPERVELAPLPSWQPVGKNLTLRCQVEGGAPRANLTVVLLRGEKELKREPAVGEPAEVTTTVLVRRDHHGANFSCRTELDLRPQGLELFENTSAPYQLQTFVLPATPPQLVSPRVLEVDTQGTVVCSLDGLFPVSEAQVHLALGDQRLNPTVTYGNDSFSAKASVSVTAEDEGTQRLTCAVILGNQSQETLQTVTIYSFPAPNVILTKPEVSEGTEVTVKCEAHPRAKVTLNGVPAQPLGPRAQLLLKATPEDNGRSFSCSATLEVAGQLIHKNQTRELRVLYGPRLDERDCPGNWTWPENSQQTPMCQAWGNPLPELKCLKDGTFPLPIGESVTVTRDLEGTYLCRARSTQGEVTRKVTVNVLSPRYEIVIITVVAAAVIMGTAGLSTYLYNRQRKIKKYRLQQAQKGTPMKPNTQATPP
Chain of Vascular cell adhesion protein 1 (P19320 whole entry): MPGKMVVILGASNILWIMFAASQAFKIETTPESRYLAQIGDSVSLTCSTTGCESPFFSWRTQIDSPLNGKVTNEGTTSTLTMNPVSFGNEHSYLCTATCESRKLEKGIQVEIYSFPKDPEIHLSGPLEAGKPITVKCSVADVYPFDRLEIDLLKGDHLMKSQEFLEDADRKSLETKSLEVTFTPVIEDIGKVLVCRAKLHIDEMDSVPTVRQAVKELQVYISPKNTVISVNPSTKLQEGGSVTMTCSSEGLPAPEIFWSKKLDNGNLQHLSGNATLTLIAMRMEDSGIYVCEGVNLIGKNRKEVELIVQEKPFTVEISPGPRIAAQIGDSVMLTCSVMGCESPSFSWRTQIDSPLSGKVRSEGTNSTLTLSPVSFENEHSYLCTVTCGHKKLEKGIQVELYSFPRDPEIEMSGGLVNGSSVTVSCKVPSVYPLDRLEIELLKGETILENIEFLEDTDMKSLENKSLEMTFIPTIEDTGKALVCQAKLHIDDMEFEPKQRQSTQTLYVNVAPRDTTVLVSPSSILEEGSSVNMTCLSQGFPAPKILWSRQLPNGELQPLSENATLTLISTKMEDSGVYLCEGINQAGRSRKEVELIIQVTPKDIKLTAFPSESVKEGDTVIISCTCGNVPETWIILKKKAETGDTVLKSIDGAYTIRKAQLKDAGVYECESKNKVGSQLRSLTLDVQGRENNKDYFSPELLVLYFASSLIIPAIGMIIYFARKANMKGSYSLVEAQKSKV

## c1cc2c(cn1)Nc1ccncc1S2
SNB-19 [1]
  IC50: 6.8 mg/L (≈ 33.8 µM)
OVCAR-8
  IC50: 7.1 mg/L (≈ 35.3 µM)
HL-60
  IC50: 4.1 mg/L (≈ 20.4 µM)
M14
  IC50: 6.5 mg/L (≈ 32.3 µM)
HOP-62
  IC50: 0.3 mg/L (≈ 1.49 µM)
Hs-578T
  IC50: 5.9 mg/L (≈ 29.3 µM)
COLO 205
  IC50: 2.4 mg/L (≈ 11.9 µM)
HOP-92
  IC50: 1.7 mg/L (≈ 8.45 µM)
PBMC
  inhibition at 1 µg/mL: 72%
786-0
  IC50: 3.9 mg/L (≈ 19.4 µM)
HCT-116
  IC50: 3.6 mg/L (≈ 17.9 µM)
ACHN
  IC50: 5.4 mg/L (≈ 26.8 µM)
SF-539
  IC50: 6.8 mg/L (≈ 33.8 µM)
PC-3
  IC50: 8.4 mg/L (≈ 41.7 µM)
Liver
  IC50: 64 µM
RXF 393
  IC50: 3.1 mg/L (≈ 15.4 µM)

## COc1ccc2c(c1)[S+]([O-])c1nccnc1N2C (stereo not given)
Rattus norvegicus [2]
  inhibition in vivo at 3 mg/kg: 12.5%

## Clc1nc2c(nc1Cl)Sc1ccccc1N2
Ancylostoma caninum
  Activity: 90%

## Cn1c(=O)nc2sc3ccccc3nc-2c1=O
Rattus norvegicus [3]
  inhibition in vivo at 60 mg/kg: 69%
[4]
  IC50: 1.4 µM
[5]
  survival: 69%

## O=c1[nH]c2c(Cl)ccc(Cl)c2c2c1Sc1cc(Cl)ccc1N2
[6]
  MIC: > 6.25 mg/L
[7]
  inhibition of growth at 6.25 µg/mL: 67%

## CCCc1nc(N2CCN(C)CC2)nc2c1Nc1ccccc1S2
Lipoxygenase
  IC50: 8.9 µM

## COc1ccc2c(c1)c1c(c3nc4ccccc4c(=O)n32)Sc2cccc(OC)c2N1
Mus musculus [8]
  Activity: 4.5 to 4.6 nM
[9]
  inhibition: 45.6 to 47.3%
Mus musculus [10]
  Activity: 6.8 nM

## [O-][S+]1c2ccccc2Nc2nc(Cl)c(Cl)nc21 (stereo not given)
Aspergillus terreus
  inhibition (INH): 100%
Bacillus subtilis
  inhibition (INH): 100%
Staphylococcus aureus
  inhibition (INH): 100%
Candida albicans [11]
  inhibition (INH): 100%
[12]
  inhibition (INH): 100%

## CCOCn1c(=O)[nH]c2c(c1=O)Nc1ccc(Cl)cc1S2
[13]
  IC50: 4.3 µM

## O=c1[nH]c2ccc(Cl)cc2c2c1Sc1cc(Cl)ccc1N2
[6]
  MIC: > 6.25 mg/L

## c1cnc2c(c1)Nc1ncccc1S2
C32
  IC50: 7.5 mg/L (≈ 37.3 µM)
MCF7
  IC50: 4.8 mg/L (≈ 23.9 µM)
HFF-1
  IC50: ≥ 50 mg/L

## CN(C)S(=O)(=O)NC1CCN(Cc2ccc3c(c2)Nc2nccnc2S3)CC1
HUVEC [14]
  IC50: 0.36 µM
[15]
  IC50: 0.27 to 1.4 µM
[16]
  IC50: 4.5 µM
Mus musculus [17]
  inhibition in vivo at 10 mg/kg: 83.4 to 89.7%
HUVEC [18]
  IC50: 0.55 µM

## CC(=O)N1CCN(c2ccc(OCC3COC(Cn4ccnc4)(c4ccc(Cl)cc4Cl)O3)cc2)CC1 (stereo not given) [KETOCONAZOLE]
Aspergillus niger [19]
  MIC: 136 mg/L (≈ 255 µM)
Aspergillus niger [20]
  MIC: 136 mg/L (≈ 255 µM)
Candida albicans [21]
  MIC: 62.2 mg/L (≈ 117 µM)

## O=[N+]([O-])c1ccc(N2c3ccncc3Sc3ccncc32)cc1
UO-31 [22]
  inhibition of growth at 3.2 µg/mL: 44%

## CN1c2ccncc2Sc2ccncc21
EKVX
  inhibition of growth at 2.1 µg/mL: 51%
UO-31 [23]
  inhibition of growth at 2.1 µg/mL: 60%

## Oc1ncnc2c1N=c1c(c3c(c4ccccc14)=Nc1ccccc1S3)O2
Escherichia coli
  MIC: 87.1 to 97.1 mg/L (≈ 235 to 262 µM)
Aspergillus niger [20]
  MIC: 79.4 mg/L (≈ 214 µM)
Bacillus cereus
  MIC: 66.1 mg/L (≈ 178 µM)

## O=C1O[C@H]([C@@H](O)CO)C(O)=C1O [ASCORBIC ACID]
Rattus norvegicus [24]
  inhibition (INH): 71.9%

## C=CCN1c2cccnc2Sc2cccnc21
SNB-19 [25]
  IC50: 18.9 mg/L (≈ 78.3 µM)

## COc1ccc2c(c1)Sc1nccnc1N2C
[26]
  IC50: 1 to 5 mg/L (≈ 4.08 to 20.4 µM)
Trachea
  inhibition at 3 µg/mL: 71%
